Results as given in ChEMBL document CHEMBL3045230, “Synthesis and pharmacological evaluation of novel 4-isopropylthiazole-4-phenyl-1,2,4-triazole derivatives as potential antimicrobial and antitubercular agents” (Med Chem Res, 2013).
Values after ≈ are worked out from the molar mass of the structure shown.

Tests used:
[1] = test system: Mycobacterium tuberculosis; assay: Antitubercular activity against Mycobacterium tuberculosis H37Rv assessed as growth inhibition after 21 days by broth dilution assay method; type: functional; details: 504 h
Escherichia coli = assay: Antimicrobial activity against Escherichia coli ATCC 10536 assessed as growth inhibition after 24 hr by broth dilution assay method; type: functional; details: ATCC 10536, 24 h
Aspergillus niger = assay: Antimicrobial activity against Aspergillus niger ATCC 6275 assessed as growth inhibition after 24 hr by broth dilution assay method; type: functional; details: ATCC 6275, 24 h
Klebsiella pneumoniae = assay: Antimicrobial activity against Klebsiella pneumoniae ATCC 10031 assessed as growth inhibition after 24 hr by broth dilution assay method; type: functional; details: ATCC 10031, 24 h
Bacillus subtilis = assay: Antimicrobial activity against Bacillus subtilis ATCC 60511 assessed as growth inhibition after 24 hr by broth dilution assay method; type: functional; details: ATCC 60511, 24 h
Saccharomyces cerevisiae = assay: Antimicrobial activity against Saccharomyces cerevisiae ATCC 9763 assessed as growth inhibition after 24 hr by broth dilution assay method; type: functional; details: ATCC 9763, 24 h
Candida tropicalis = assay: Antimicrobial activity against Candida tropicalis ATCC 1369 assessed as growth inhibition after 24 hr by broth dilution assay method; type: functional; details: ATCC 1369, 24 h
Enterococcus faecalis = assay: Antimicrobial activity against […] ATCC 14506 assessed as growth inhibition after 24 hr by broth dilution assay method; type: functional; details: ATCC 14506, 24 h
Pseudomonas aeruginosa = assay: Antimicrobial activity against Pseudomonas aeruginosa ATCC 10145 assessed as growth inhibition after 24 hr by broth dilution assay method; type: functional; details: ATCC 10145, 24 h
Staphylococcus aureus = assay: Antimicrobial activity against Staphylococcus aureus ATCC 11632 assessed as growth inhibition after 24 hr by broth dilution assay method; type: functional; details: ATCC 11632, 24 h
[2] = (§1) Cytotoxicity against Homo sapiens (human) A549 cells assessed as viable cells at 250 uM by MTT assay in presence of fetal bovine serum; type: cell-based; details: A549 cells, read-out: Activity
A549 = assay: as §1; type: cell-based; details: a549, 250 µM

SMILES	MIC [1]	MIC (Escherichia coli)	MIC (Aspergillus niger)	MIC (Klebsiella pneumoniae)	MIC (Bacillus subtilis)	MIC (Saccharomyces cerevisiae)	MIC (Candida tropicalis)	MIC (Enterococcus faecalis)	MIC (Pseudomonas aeruginosa)	MIC (Staphylococcus aureus)	viability at 250 µM [2]	Activity (A549)
C/C(=N\NC(=O)CSc1nnc(-c2nc(C(C)C)cs2)n1-c1ccccc1)c1ccc([N+](=O)[O-])cc1	62.5 µg/mL (≈ 120 µM)	62.5 µg/mL (≈ 120 µM)	125 µg/mL (≈ 240 µM)	31.2 µg/mL (≈ 59.9 µM)	125 µg/mL (≈ 240 µM)	125 µg/mL (≈ 240 µM)	31.2 µg/mL (≈ 59.9 µM)	31.2 µg/mL (≈ 59.9 µM)	62.5 µg/mL (≈ 120 µM)	31.2 µg/mL (≈ 59.9 µM)		
COc1ccc(/C(C)=N/NC(=O)CSc2nnc(-c3nc(C(C)C)cs3)n2-c2ccccc2)cc1	8 µg/mL (≈ 15.8 µM)	125 µg/mL (≈ 247 µM)	125 µg/mL (≈ 247 µM)	250 µg/mL (≈ 493 µM)	62.5 µg/mL (≈ 123 µM)	62.5 µg/mL (≈ 123 µM)	125 µg/mL (≈ 247 µM)	31.2 µg/mL (≈ 61.7 µM)	62.5 µg/mL (≈ 123 µM)	31.2 µg/mL (≈ 61.7 µM)		
C/C(=N\NC(=O)CSc1nnc(-c2nc(C(C)C)cs2)n1-c1ccccc1)c1ccc(O)cc1	16 µg/mL (≈ 32.5 µM)	16 µg/mL (≈ 32.5 µM)	8 µg/mL (≈ 16.2 µM)	31.2 µg/mL (≈ 63.4 µM)	62.5 µg/mL (≈ 127 µM)	31.2 µg/mL (≈ 63.4 µM)	8 µg/mL (≈ 16.2 µM)	31.2 µg/mL (≈ 63.4 µM)	16 µg/mL (≈ 32.5 µM)	62.5 µg/mL (≈ 127 µM)	50%	
C/C(=N\NC(=O)CSc1nnc(-c2nc(C(C)C)cs2)n1-c1ccccc1)c1ccc(C)cc1	62.5 µg/mL (≈ 127 µM)	125 µg/mL (≈ 255 µM)	31.2 µg/mL (≈ 63.7 µM)	16 µg/mL (≈ 32.6 µM)	31.2 µg/mL (≈ 63.7 µM)	62.5 µg/mL (≈ 127 µM)	125 µg/mL (≈ 255 µM)	62.5 µg/mL (≈ 127 µM)	62.5 µg/mL (≈ 127 µM)	125 µg/mL (≈ 255 µM)		
C/C(=N\NC(=O)CSc1nnc(-c2nc(C(C)C)cs2)n1-c1ccccc1)c1ccc(Br)cc1	31.2 µg/mL (≈ 56.3 µM)	62.5 µg/mL (≈ 113 µM)	31.2 µg/mL (≈ 56.3 µM)	31.2 µg/mL (≈ 56.3 µM)	62.5 µg/mL (≈ 113 µM)	31.2 µg/mL (≈ 56.3 µM)	125 µg/mL (≈ 225 µM)	125 µg/mL (≈ 225 µM)	125 µg/mL (≈ 225 µM)	16 µg/mL (≈ 28.8 µM)		
C/C(=N\NC(=O)CSc1nnc(-c2nc(C(C)C)cs2)n1-c1ccccc1)c1ccc(Cl)cc1	31.2 µg/mL (≈ 61.1 µM)	16 µg/mL (≈ 31.3 µM)	125 µg/mL (≈ 245 µM)	62.5 µg/mL (≈ 122 µM)	125 µg/mL (≈ 245 µM)	31.2 µg/mL (≈ 61.1 µM)	31.2 µg/mL (≈ 61.1 µM)	31.2 µg/mL (≈ 61.1 µM)	31.2 µg/mL (≈ 61.1 µM)	31.2 µg/mL (≈ 61.1 µM)		
CC(C)c1csc(-c2nnc(SCc3nnc(-c4ccccc4)o3)n2-c2ccccc2)n1		125 µg/mL (≈ 271 µM)	31.2 µg/mL (≈ 67.8 µM)	62.5 µg/mL (≈ 136 µM)	31.2 µg/mL (≈ 67.8 µM)	16 µg/mL (≈ 34.7 µM)	16 µg/mL (≈ 34.7 µM)	31.2 µg/mL (≈ 67.8 µM)	31.2 µg/mL (≈ 67.8 µM)	31.2 µg/mL (≈ 67.8 µM)		
CC(C)c1csc(-c2nnc(SCc3nnc(CCl)o3)n2-c2ccccc2)n1		16 µg/mL (≈ 37 µM)	31.2 µg/mL (≈ 72.2 µM)	31.2 µg/mL (≈ 72.2 µM)	31.2 µg/mL (≈ 72.2 µM)	62.5 µg/mL (≈ 144 µM)	125 µg/mL (≈ 289 µM)	16 µg/mL (≈ 37 µM)	16 µg/mL (≈ 37 µM)	8 µg/mL (≈ 18.5 µM)		
CC(C)c1csc(-c2nnc(SCc3nnc(-c4ccc(Cl)cc4)o3)n2-c2ccccc2)n1		62.5 µg/mL (≈ 126 µM)	125 µg/mL (≈ 253 µM)	62.5 µg/mL (≈ 126 µM)	4 µg/mL (≈ 8.08 µM)	62.5 µg/mL (≈ 126 µM)	125 µg/mL (≈ 253 µM)	8 µg/mL (≈ 16.2 µM)	62.5 µg/mL (≈ 126 µM)	8 µg/mL (≈ 16.2 µM)	50%	
CC(C)c1csc(-c2nnc(SCc3nnc(-c4ccc([N+](=O)[O-])cc4)o3)n2-c2ccccc2)n1		62.5 µg/mL (≈ 124 µM)	62.5 µg/mL (≈ 124 µM)	31.2 µg/mL (≈ 61.8 µM)	62.5 µg/mL (≈ 124 µM)	62.5 µg/mL (≈ 124 µM)	31.2 µg/mL (≈ 61.8 µM)	31.2 µg/mL (≈ 61.8 µM)	31.2 µg/mL (≈ 61.8 µM)	31.2 µg/mL (≈ 61.8 µM)		
Cc1ccc(-c2nnc(CSc3nnc(-c4nc(C(C)C)cs4)n3-c3ccccc3)o2)cc1		31.2 µg/mL (≈ 65.8 µM)	125 µg/mL (≈ 263 µM)	62.5 µg/mL (≈ 132 µM)	125 µg/mL (≈ 263 µM)	125 µg/mL (≈ 263 µM)	31.2 µg/mL (≈ 65.8 µM)	31.2 µg/mL (≈ 65.8 µM)	62.5 µg/mL (≈ 132 µM)	62.5 µg/mL (≈ 132 µM)		
CC(C)c1csc(-c2nnc(SCc3nnc(-c4ccc(O)cc4)o3)n2-c2ccccc2)n1		62.5 µg/mL (≈ 131 µM)	31.2 µg/mL (≈ 65.6 µM)	125 µg/mL (≈ 262 µM)	31.2 µg/mL (≈ 65.6 µM)	31.2 µg/mL (≈ 65.6 µM)	31.2 µg/mL (≈ 65.6 µM)	62.5 µg/mL (≈ 131 µM)	31.2 µg/mL (≈ 65.6 µM)	31.2 µg/mL (≈ 65.6 µM)		
CC(=O)NNC(=O)CSc1nnc(-c2nc(C(C)C)cs2)n1-c1ccccc1	62.5 µg/mL (≈ 150 µM)	62.5 µg/mL (≈ 150 µM)	8 µg/mL (≈ 19.2 µM)	31.2 µg/mL (≈ 75 µM)	62.5 µg/mL (≈ 150 µM)	16 µg/mL (≈ 38.4 µM)	8 µg/mL (≈ 19.2 µM)	125 µg/mL (≈ 300 µM)	125 µg/mL (≈ 300 µM)	125 µg/mL (≈ 300 µM)		
CCOC(=O)CSc1nnc(-c2nc(C(C)C)cs2)n1-c1ccccc1	125 µg/mL (≈ 322 µM)	125 µg/mL (≈ 322 µM)	62.5 µg/mL (≈ 161 µM)	125 µg/mL (≈ 322 µM)	62.5 µg/mL (≈ 161 µM)	62.5 µg/mL (≈ 161 µM)	125 µg/mL (≈ 322 µM)	125 µg/mL (≈ 322 µM)	62.5 µg/mL (≈ 161 µM)	125 µg/mL (≈ 322 µM)		
CC(C)c1csc(-c2nnc(SCC(=O)NN)n2-c2ccccc2)n1	16 µg/mL (≈ 42.7 µM)	8 µg/mL (≈ 21.4 µM)	31.2 µg/mL (≈ 83.4 µM)	8 µg/mL (≈ 21.4 µM)	31.2 µg/mL (≈ 83.4 µM)	62.5 µg/mL (≈ 167 µM)	31.2 µg/mL (≈ 83.4 µM)	31.2 µg/mL (≈ 83.4 µM)	8 µg/mL (≈ 21.4 µM)	16 µg/mL (≈ 42.7 µM)	50%	
COc1ccc(/C=N/NC(=O)CSc2nnc(-c3nc(C(C)C)cs3)n2-c2ccccc2)cc1OC	8 µg/mL (≈ 15.3 µM)	16 µg/mL (≈ 30.6 µM)	16 µg/mL (≈ 30.6 µM)	16 µg/mL (≈ 30.6 µM)	8 µg/mL (≈ 15.3 µM)	16 µg/mL (≈ 30.6 µM)	31.2 µg/mL (≈ 59.8 µM)	12 µg/mL (≈ 23 µM)	31.2 µg/mL (≈ 59.8 µM)	8 µg/mL (≈ 15.3 µM)		
CC(C)c1csc(-c2nnc(SCC(=O)N/N=C/c3ccc(Cl)cc3)n2-c2ccccc2)n1	125 µg/mL (≈ 251 µM)	31.2 µg/mL (≈ 62.9 µM)	31.2 µg/mL (≈ 62.9 µM)	62.5 µg/mL (≈ 126 µM)	31.2 µg/mL (≈ 62.9 µM)	16 µg/mL (≈ 32.2 µM)	31.2 µg/mL (≈ 62.9 µM)	31.2 µg/mL (≈ 62.9 µM)	62.5 µg/mL (≈ 126 µM)	62.5 µg/mL (≈ 126 µM)		
CC(C)c1csc(-c2nnc(SCC(=O)N/N=C/c3ccc(O)cc3)n2-c2ccccc2)n1	8 µg/mL (≈ 16.7 µM)	125 µg/mL (≈ 261 µM)	31.2 µg/mL (≈ 65.3 µM)	16 µg/mL (≈ 33.4 µM)	125 µg/mL (≈ 261 µM)		62.5 µg/mL (≈ 131 µM)	16 µg/mL (≈ 33.4 µM)	62.5 µg/mL (≈ 131 µM)	125 µg/mL (≈ 261 µM)		Toxic
COc1cc(/C=N/NC(=O)CSc2nnc(-c3nc(C(C)C)cs3)n2-c2ccccc2)ccc1O	31.2 µg/mL (≈ 61.4 µM)	8 µg/mL (≈ 15.7 µM)	31.2 µg/mL (≈ 61.4 µM)	8 µg/mL (≈ 15.7 µM)	16 µg/mL (≈ 31.5 µM)	16 µg/mL (≈ 31.5 µM)	62.5 µg/mL (≈ 123 µM)	125 µg/mL (≈ 246 µM)	16 µg/mL (≈ 31.5 µM)	125 µg/mL (≈ 246 µM)		
CC(C)c1csc(-c2nnc(SCC(=O)N/N=C/c3cccc([N+](=O)[O-])c3)n2-c2ccccc2)n1	62.5 µg/mL (≈ 123 µM)	31.2 µg/mL (≈ 61.6 µM)	125 µg/mL (≈ 246 µM)	16 µg/mL (≈ 31.5 µM)	31.2 µg/mL (≈ 61.6 µM)	62.5 µg/mL (≈ 123 µM)	31.2 µg/mL (≈ 61.6 µM)	31.2 µg/mL (≈ 61.6 µM)	62.5 µg/mL (≈ 123 µM)	125 µg/mL (≈ 246 µM)		
O=C(O)c1cn(C2CC2)c2cc(N3CCNCC3)c(F)cc2c1=O [CIPROFLOXACIN]		≤ 1 µg/mL		≤ 1 µg/mL	≤ 1 µg/mL			≤ 5 µg/mL	≤ 5 µg/mL	≤ 5 µg/mL		
OC(Cn1cncn1)(Cn1cncn1)c1ccc(F)cc1F [FLUCONAZOLE]			≤ 1 µg/mL			≤ 1 µg/mL	≤ 1 µg/mL					
NNC(=O)c1ccncc1 [ISONIAZID]	0.25 µg/mL (≈ 1.82 µM)											
CCn1cc(C(=O)O)c(=O)c2cc(F)c(N3CCNCC3)cc21 [NORFLOXACIN]		≤ 1 µg/mL		≤ 1 µg/mL	≤ 1 µg/mL			≤ 5 µg/mL	≤ 5 µg/mL	≤ 5 µg/mL		
